According to patent EP1220857B1, “GONADOTROPIN RELEASING HORMONE RECEPTOR ANTAGONISTS AND THEIR RELATED METHODS OF USE” (NEUROCRINE BIOSCIENCES, INC., priority 1999, dated 2001):
pKi: −log10 of the molar value.

Target: T1, GnRH receptor (Homo sapiens, UniProt P30968)
T1 construct: expressed in transfected cells
T1 sequence (P30968 1-328): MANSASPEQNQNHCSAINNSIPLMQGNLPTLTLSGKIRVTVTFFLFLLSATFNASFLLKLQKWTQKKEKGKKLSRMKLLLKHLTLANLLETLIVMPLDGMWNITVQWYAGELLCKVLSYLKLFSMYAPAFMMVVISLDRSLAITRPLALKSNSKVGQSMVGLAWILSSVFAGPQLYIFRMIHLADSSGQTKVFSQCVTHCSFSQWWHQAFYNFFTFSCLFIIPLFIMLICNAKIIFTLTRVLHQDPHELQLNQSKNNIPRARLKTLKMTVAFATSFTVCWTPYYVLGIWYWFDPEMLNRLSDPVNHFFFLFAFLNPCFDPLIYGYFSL
Assay: GnRH receptor membrane binding assay
Details: displacement of [125I]-labeled GnRH peptide from membranes of cells transfected with GnRH receptor expression vectors; Ki by Cheng-Prusoff
Description: Activity of GnRH receptor antagonists are typically calculated from the IC50 as the concentration of a compound necessary to displace 50% of the radiolabeled ligand from the GnRH receptor, and is reported as a "Ki" value calculated by the following equation: Ki =(IC50)/(1 + L / KD) [formula] where L = radioligand and KD = affinity of radioligand for receptor (Cheng and Prusoff, Biochem. Pharmacol. 22:3099, 1973). GnRH receptor antagonists of this invention have a Ki of 100 µM or less. In a preferred embodiment of this invention, the GnRH receptor antagonists have a Ki of less than 10 µM, and more preferably less than 1µM. More preferred compounds include: 1-1, 1-2-5, 12, 13-15, 19, 21, 27, 31, 32, 34, 37, 55, 58, 64, 73, 2B, 2D, 3A, 3B, 3D, 4A, 4B, 4C, 4D, 4G, 4H, 5A and 5B (see Examples below).
The GnRH analog is labeled by the chloramine-T method. To 10 µg of peptide in 20 µl of 0.5M sodium phosphate buffer, pH 7.6, is added 1 mCi of Na125I, followed by 22.5 µg chloramine-T and the mixture vortexed for 20 sec. The reaction is stopped by the addition of 60 µg sodium metabisulfite and the free iodine is removed by passing the iodinated mixture through a C-8 Sep-Pak cartridge (Millipore Corp., Milford, MA). The peptide is eluted with a small volume of 80% acetonitrile/water. The recovered labeled peptide is further purified by reverse phase HPLC on a Vydac C-18 analytical column (The Separations Group, Hesperia, CA) on a Beckman 334 gradient HPLC system using a gradient of acetonitrile in 0.1% TFA. The purified radioactive peptide is stored in 0.1 % BSA/20% acetonitrile/0.1% TFA at -800C and can be used for up to 4 weeks.
Cells stably, or transiently, transfected with GnRH receptor expression vectors are harvested, resuspended in 5% sucrose and homogenized using a polytron homogenizer (2x 15 sec). Nuclei are removed by centrifugation (3000 x g for 5 min.), and the supernatant centrifuged (20,000 x g for 30 min, 4° C) to collect the membrane fraction. The final membrane preparation is resuspended in binding buffer (10mM Hepes (pH 7.5), 150 mM NaCl, and 0.1% BSA) and stored at -70°C. Binding reactions are performed in a Millipore MultiScreen 96-well filtration plate assembly with polyethylenimine coated GF/C membranes. The reaction is initiated by adding membranes (40 ug protein in 130 ul binding buffer) to 50ul of [^125I]-labeled GnRH peptide (~100,000 cpm), and 20ul of competitor at varying concentrations. The reaction is terminated after 90 minutes by application of vacuum and washing (2X) with phosphate buffered saline. Bound radioactivity is measured using 96-well scintillation counting (Packard Topcount) or by removing the filters from the plate and direct gamma counting. Ki values are calculated from competition binding data using non-linear least squares regression using the Prism software package (GraphPad Software).

pKi | SMILES
> 6.00 | CCOC(=O)c1cn(Cc2ccccc2F)c2cc(C(C)(C)C)c(CN(C)CCc3ccccn3)n2c1=O [Example 2B]
> 6.00 | CN(CCc1ccccn1)Cc1c(C(C)(C)C)cc2n(Cc3ccccc3F)cc(C(=O)NCCCc3ccccc3)c(=O)n12 [Example 2D]
> 6.00 | COc1cccc(-c2c(C)n(Cc3ccccc3F)c3nc(C(C)(C)C)c(CNCCc4ccccc4F)n3c2=O)c1 [Example 3A, 2-(tert-Butyl)-3-[N-(2-fluorophenyl)ethyl]aminomethyl-5-(3-methoxyphenyl)-6-methyl-7-(2-fluorobenzyl)imidazolo[1,2-a]pyrimid-4-one]
> 6.00 | COc1cccc(-c2c(C)n(Cc3ccccc3F)c3nc(C(C)(C)C)c(CNCCc4ccccn4)n3c2=O)c1 [Example 3B]
> 6.00 | COc1cccc(-c2c(C)n(Cc3ccccc3F)c3nc(C(C)(C)C)c(CNCc4ccccn4)n3c2=O)c1 [Example 3D, 3-(N-(2-Pyridylmethyl))aminomethyl-2-(tert-butyl)-6-methyl-7-(2-fluorobenzyl)-5-(3-methoxyphenyl)imidazolo[1,2-a]pyrimid-4-one]
